Results on 13 compounds are retold here after US12351581B2, “Compounds for FGFR inhibition” (Cogent Biosciences, Inc., priority 2023, dated 2025).

One test has as its target T1, FGFR2 (Homo sapiens, UniProt P21802).
T1 construct: biochemical assays using purified intracellular domains of the respective isoforms; purchased Carna Bioscience 08-134
The experiment in a line: FGFR wild type enzyme assay (HTRF KinEASE-TK). Format: biochemical. As to conditions: ATP 2 uM. The protocol: (§1) Activity against FGFR wild type and mutant enzymes were determined in biochemical assays using purified intracellular domains of the respective isoforms using HTRF KinEASE-TK assay technology from CisBio, now PerkinElmer. (Catalogue number 62TK0PEC). Briefly test compounds were tested in 11 point 1:3 serial dilutions, typical final concentration range from 10,000 nM to 0.17 nM. Test compounds were dissolved in DMSO and added to assay plates using acoustic transfer. Enzyme was pre-incubated with test compound for 30 minutes and the assay was initiated by addition of ATP and TK-peptide substrate. After 60 minutes at room temperature the reaction was quenched with detection reagent and incubated for an additional 60 minutes at room temperature. The plates were read using a multimode reader and the emission ratio of 665 nm to 615 nm was determined. This ratio was converted to percent of control (POC). [1-(high control-sample signal)/(high control-low control)]*100. Wells without compound were used to determine high control values and wells without enzyme were used to determine low control values. The POC values were fit using a four-parameter logistic model and the value where the fit curve was equal to 50 POC was reported as the IC50 using the Signals Vitro Vivo software package (PerkinElmer). Final assay conditions were: 50 mM HEPES pH7.5, 10 mM MgCl2, 1 mM EDTA, 0.01% Brij-35, 2 mM MnCl2, 1 mM DTT, and 0.5 uM TK-peptide. The enzyme source, catalogue number, final enzyme concentration, and final ATP concentration can be found in the tables 1-2 below.
Background: Time-resolved FRET reads energy transfer from a long-lived donor to a nearby acceptor.

The target of a further test is FGFR2-WT (Homo sapiens, UniProt P21802). The experiment in a line: Phosphorylated FGFR2-WT (pFGFR2-WT) cell assay, KATOIII cells. The following applies: 1 hour incubation, phospho FGFR2 HTRF. Type of test: cell-based. On the procedure: KATOIII cells were grown in the appropriate growth medium, IMDM supplemented with 20% fetal bovine serum. Cells were seeded into a 384-well at 1×10^5 cells/25 μL/well. Cells were treated with compound using three-fold serial dilutions at final concentrations ranging from 10 μM to 0.5 nM. Compound was incubated on cells for 1 hour at 37° C., 5% CO2.
Chain of FGFR2-WT (P21802 430-767 limits assumed): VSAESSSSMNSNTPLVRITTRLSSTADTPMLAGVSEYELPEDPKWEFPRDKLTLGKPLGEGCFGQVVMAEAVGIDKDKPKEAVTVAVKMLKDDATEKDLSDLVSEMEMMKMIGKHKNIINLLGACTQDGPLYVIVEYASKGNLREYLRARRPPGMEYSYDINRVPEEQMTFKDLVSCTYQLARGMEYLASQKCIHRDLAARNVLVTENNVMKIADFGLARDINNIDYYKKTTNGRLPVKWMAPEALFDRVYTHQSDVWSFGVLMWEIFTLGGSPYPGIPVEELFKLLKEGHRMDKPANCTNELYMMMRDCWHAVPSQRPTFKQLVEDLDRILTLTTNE
Following the 1-hour incubation with compounds, cell lysates were prepared and phospho FGFR2 was measured using the HTRF Phospho-FGFR2 (TYR653/654) Detection Kits (CisBio, cat #64FGFR2Y6PEG). 8 μL of cell lysis buffer (4×) supplied with 1× Phospho and Total protein blocking reagent (CisBio, cat #64FGFR2Y6PEG, CisBio, cat #64KB1AAC) was then added to the wells. Cells were incubated with lysis buffer for 40 minutes at 4° C. under shaking conditions. Plates were centrifuged at 1500 rpm for 3 min and then 16 μL of cell lysate was transferred from the cell-culture plate to a small volume detection plate with the added premixed antibody solutions (4 μL) (CisBio, cat #64FGFR2Y6PEG). Plates were centrifuged at 1000 rpm for 1 min then incubated at 25° C. for 120 min, then overnight at 4° C. Plates were read on the En Vision multimode plate reader via HTRF dual wavelength detection. One hundred percent of control (POC) was determined using DMSO treated samples, and 0 POC was determined using the top concentration of a control compound. A 4-parameter logistic curve was fit to the POC values as a function of compound concentration to determine the IC50 value.

The target in a further test is T2, FGFR2 V564F (Homo sapiens, UniProt P21802, V564F).
T2 construct: biochemical assays using purified intracellular domains of the respective isoforms; purchased SignalChem Biotech F05-12FG
T2 sequence (P21802 399-821 V564F limits assumed): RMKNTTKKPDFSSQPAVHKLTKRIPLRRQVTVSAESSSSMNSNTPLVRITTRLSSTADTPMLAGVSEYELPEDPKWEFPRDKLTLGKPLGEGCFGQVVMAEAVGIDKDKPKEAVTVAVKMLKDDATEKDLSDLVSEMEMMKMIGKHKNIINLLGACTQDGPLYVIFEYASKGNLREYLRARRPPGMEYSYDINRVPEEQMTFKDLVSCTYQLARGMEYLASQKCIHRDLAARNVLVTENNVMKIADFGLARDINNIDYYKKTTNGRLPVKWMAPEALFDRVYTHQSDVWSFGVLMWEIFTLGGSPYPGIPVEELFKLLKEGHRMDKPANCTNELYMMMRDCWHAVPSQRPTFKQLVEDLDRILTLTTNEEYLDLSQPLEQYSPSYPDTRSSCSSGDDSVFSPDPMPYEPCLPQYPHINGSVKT
The experiment in a line: FGFR mutant enzyme assay (HTRF KinEASE-TK). Format: biochemical. The following applies: ATP 1.5 uM. On the procedure: as §1

The next test addresses T3, FGFR2 N549H (Homo sapiens, UniProt P21802, N549H).
T3 construct: biochemical assays using purified intracellular domains of the respective isoforms; purchased Carna Bioscience 08-532
The experiment in a line: FGFR mutant enzyme assay (HTRF KinEASE-TK). Format: biochemical. As to conditions: ATP 0.9 uM. On the procedure: as §1

In another test the target is T4, FGFR2 V564I (Homo sapiens, UniProt P21802, V564I).
T4 construct: biochemical assays using purified intracellular domains of the respective isoforms; purchased Carna Bioscience 08-546
T4 sequence (P21802 399-821 V564I limits assumed): as the sequence (P21802 399-821 V564F limits assumed) above, with F166I counted along it
The experiment in a line: FGFR mutant enzyme assay (HTRF KinEASE-TK). Format: biochemical. The following applies: ATP 0.4 uM. On the procedure: as §1

The mark [1] stands for this setting: compound table after the examples, read-out: Enz FGFR2.

Read-outs that look alike come from different tables or passages of the source.

T3 sequence (P21802 399-821 N549H limits assumed): as the sequence (P21802 399-821 V564F limits assumed) above, with N151H, F166V counted along it
T1 sequence (P21802 399-821 limits assumed): as the sequence (P21802 399-821 V564F limits assumed) above, with F166V counted along it

Regarding `Cc1c(-c2cc(O[C@H](C)c3ccc(F)cn3)c3c(C#N)cnn3c2)cnn1[C@@H]1CCCC[C@H]1O` [Compound 62, 4-((R)-1-(5-fluoropyridin-2-yl)ethoxy)-6-(1-((1R,2R)-2-hydroxycyclohexyl)-5-methyl-1H-pyrazol-4-yl)pyrazolo[1,5-a]pyridine-3-carbonitrile], the IC50 on FGFR2 (Table 3, read-out: FGFR2 Enz) was 7 nM; on FGFR2 (setting [1]), 8 nM; against FGFR2-WT it was 48 nM; against FGFR2 V564F, 21.5 nM; at FGFR2 N549H it was 9 nM; against FGFR2 V564I, 30 nM.
Consider `C[C@@H](Oc1cc(-c2cnn(C3CCNCC3)c2)cn2ncc(C#N)c12)c1ncccc1F` [Compound 8, (R)-4-(1-(3-fluoropyridin-2-yl)ethoxy)-6-(1-(piperidin-4-yl)-1H-pyrazol-4-yl)pyrazolo[1,5-a]pyridine-3-carbonitrile], for which the IC50 is 0.2 nM on FGFR2 (Table 3, read-out: FGFR2 Enz); 0.2 nM on FGFR2 (setting [1]); 2 nM against FGFR2-WT; 0.08 nM on FGFR2 V564F; 0.05 nM against FGFR2 N549H; 0.1 nM at FGFR2 V564I.
With `C[C@@H](Oc1cc(-c2cnn(C)c2N)cn2ncc(C#N)c12)c1ccc(F)cn1` [Compound 30, (R)-6-(5-amino-1-methyl-1H-pyrazol-4-yl)-4-(1-(5-fluoropyridin-2-yl)ethoxy)pyrazolo[1,5-a]pyridine-3-carbonitrile], the IC50 was determined as 1 nM at FGFR2 (Table 3, read-out: FGFR2 Enz); 1 nM on FGFR2 (setting [1]); 9 nM against FGFR2-WT; 3.7 nM against FGFR2 V564F; 2 nM at FGFR2 N549H; 6 nM against FGFR2 V564I.
In the case of `Cc1c(-c2cc(O[C@H](C)c3ccccn3)c3c(C#N)cnn3c2)cnn1C1CCNCC1` [Compound 5, (R)-6-(5-methyl-1-(piperidin-4-yl)-1H-pyrazol-4-yl)-4-(1-(pyridin-2-yl)ethoxy)pyrazolo[1,5-a]pyridine-3-carbonitrile], the IC50 at FGFR2 (Table 3, read-out: FGFR2 Enz) stood at 0.25 nM; on FGFR2 (setting [1]), 0.25 nM; at FGFR2-WT, 5 nM; against FGFR2 V564F, 1 nM; on FGFR2 N549H, 0.7 nM; against FGFR2 V564I, 1.4 nM.
Regarding `C[C@H](O)C(=O)N1CCC(n2cc(-c3cc(O[C@H](C)c4ccc(F)cn4)c4c(C#N)cnn4c3)cn2)CC1` [Compound 19, 4-((R)-1-(5-fluoropyridin-2-yl)ethoxy)-6-(1-(1-((S)-2-hydroxypropanoyl)piperidin-4-yl)-1H-pyrazol-4-yl)pyrazolo[1,5-a]pyridine-3-carbonitrile], the IC50 stood at 0.15 nM on FGFR2 (Table 3, read-out: FGFR2 Enz); 0.15 nM at FGFR2 (setting [1]); 1.25 nM against FGFR2-WT; 0.3 nM on FGFR2 V564F; 0.1 nM on FGFR2 N549H; 0.4 nM on FGFR2 V564I.
For `Cc1c(-c2cc(O[C@H](C)c3ccc(F)cn3)c3c(C#N)cnn3c2)cnn1[C@H]1CCC[C@@H](O)C1` [Compound 71, 4-((R)-1-(5-fluoropyridin-2-yl)ethoxy)-6-(1-((1S,3R)-3-hydroxycyclohexyl)-5-methyl-1H-pyrazol-4-yl)pyrazolo[1,5-a]pyridine-3-carbonitrile], the IC50 at FGFR2 (Table 3, read-out: FGFR2 Enz) was 1 nM; on FGFR2 (setting [1]) it was 1 nM; on FGFR2-WT, 4.5 nM; on FGFR2 V564F it was 2 nM; against FGFR2 N549H, 1 nM; against FGFR2 V564I it was 3 nM.
In the case of `Cc1c(-c2cc(O[C@H](C)c3ccc(F)cn3)c3c(C#N)cnn3c2)cnn1[C@H]1CC[C@H](OC(=O)[C@@H](N)C(C)C)CC1` [Compound 53, (1R,4S)-4-(4-(3-cyano-4-((R)-1-(5-fluoropyridin-2-yl)ethoxy)pyrazolo[1,5-a]pyridin-6-yl)-5-methyl-1H-pyrazol-1-yl)cyclohexyl L-valinate], the IC50 on FGFR2 (Table 3, read-out: FGFR2 Enz) came to 0.3 nM; on FGFR2 (setting [1]), 0.3 nM; against FGFR2-WT, 3 nM; on FGFR2 V564F, 1 nM; at FGFR2 N549H, 0.5 nM; against FGFR2 V564I it was 1.5 nM.
For `C[C@@H](Oc1cc(-c2ccc(N3CC[C@@H](O)[C@@H](O)C3)nc2)cn2ncc(C#N)c12)c1ccc(F)cn1` [Compound 25, 6-(6-((3S,4R)-3,4-dihydroxypiperidin-1-yl)pyridin-3-yl)-4-((R)-1-(5-fluoropyridin-2-yl)ethoxy)pyrazolo[1,5-a]pyridine-3-carbonitrile], the IC50 came out at 0.3 nM on FGFR2 (Table 3, read-out: FGFR2 Enz); 0.3 nM on FGFR2 (setting [1]); 3 nM at FGFR2-WT; 0.7 nM on FGFR2 V564F; 0.25 nM against FGFR2 N549H; 1 nM on FGFR2 V564I.
As to `C[C@@H](Oc1cc(-c2cnn(C)c2N)cn2ncc(C#N)c12)c1ccccn1` [Compound 35, (R)-6-(5-amino-1-methyl-1H-pyrazol-4-yl)-4-(1-(pyridin-2-yl)ethoxy)pyrazolo[1,5-a]pyridine-3-carbonitrile], the IC50 on FGFR2 (Table 3, read-out: FGFR2 Enz) worked out at 1 nM; on FGFR2 (setting [1]), 1 nM; at FGFR2-WT, 5 nM; on FGFR2 V564F, 2 nM; against FGFR2 N549H, 1 nM; at FGFR2 V564I it was 2.7 nM.
Turning to `Cc1c(-c2cc(O[C@H](C)c3ccc(F)cn3)c3c(C#N)cnn3c2)cnn1C1CCN(C[C@H](O)CO)CC1` [Compound 39, 6-(1-(1-((S)-2,3-dihydroxypropyl)piperidin-4-yl)-5-methyl-1H-pyrazol-4-yl)-4-((R)-1-(5-fluoropyridin-2-yl)ethoxy)pyrazolo[1,5-a]pyridine-3-carbonitrile], the IC50 at FGFR2 (Table 3, read-out: FGFR2 Enz) amounted to 0.5 nM; at FGFR2 (setting [1]), 0.5 nM; at FGFR2-WT, 5.5 nM; against FGFR2 V564F, 1 nM; on FGFR2 N549H it was 0.4 nM; against FGFR2 V564I, 1 nM.
For `Cc1c(-c2cc(O[C@@H](C)c3ccc(F)cn3)c3c(C#N)cnn3c2)cnn1[C@H]1CC[C@@H](O)CC1` [Compound 50, 4-((S)-1-(5-fluoropyridin-2-yl)ethoxy)-6-(1-((1s,4R)-4-hydroxycyclohexyl)-5-methyl-1H-pyrazol-4-yl)pyrazolo[1,5-a]pyridine-3-carbonitrile], the IC50 on FGFR2 (Table 3, read-out: FGFR2 Enz) was determined as 5.5 nM; on FGFR2 (setting [1]) it was 5.5 nM; on FGFR2-WT, 57 nM; against FGFR2 V564F, 11 nM; at FGFR2 N549H, 6 nM; against FGFR2 V564I it was 20 nM.
Consider `C[C@@H](Oc1cc(-c2ccc(N3CCC(O)CC3)nc2)cn2ncc(C#N)c12)c1ccc(F)cn1` [Compound 56, (R)-4-(1-(5-fluoropyridin-2-yl)ethoxy)-6-(6-(4-hydroxypiperidin-1-yl)pyridin-3-yl)pyrazolo[1,5-a]pyridine-3-carbonitrile], for which the IC50 on FGFR2 (Table 3, read-out: FGFR2 Enz) was 0.2 nM; at FGFR2 (setting [1]), 0.2 nM; at FGFR2-WT, 3.4 nM; against FGFR2 V564F it was 0.6 nM; on FGFR2 N549H, 0.2 nM; on FGFR2 V564I it was 1 nM.
As for `Cc1c(-c2cc(O[C@H](C)c3ccc(F)cn3)c3c(C#N)cnn3c2)cnn1[C@@H]1CCC[C@H](O)C1` [Compound 72, 4-((R)-1-(5-fluoropyridin-2-yl)ethoxy)-6-(1-((1R,3S)-3-hydroxycyclohexyl)-5-methyl-1H-pyrazol-4-yl)pyrazolo[1,5-a]pyridine-3-carbonitrile], the IC50 was 0.4 nM at FGFR2 (Table 3, read-out: FGFR2 Enz); 0.4 nM at FGFR2 (setting [1]); 3 nM against FGFR2-WT; 1 nM against FGFR2 V564F; 0.45 nM at FGFR2 N549H; 1.5 nM on FGFR2 V564I.
